Measured values reported in US20100267561A1, “HERBICIDAL PYRIDAZINONE DERIVATIVES” (priority 2007, published 2010).

Assays:
Experiment in all cases: Test B pre-/postemergence plant response
Format in all cases: in vivo
[1] = tested on: blackgrass (Alopecurus myosuroides)
How it was run: (§1)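 Preemergence and postemergence (plants 2-18 cm, 1- to 4-leaf stage) applications used test chemicals in a non-phytotoxic solvent with surfactant. Plants were held in a greenhouse 13 to 15 days, then rated visually against controls on a 0-100 scale (0 no effect, 100 complete control).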

[2] = tested on: common (oilseed) sunflower (Helianthus annuus); details: Preemergence
How it was run: as §1

[3] = tested on: common ragweed (Ambrosia elation)
How it was run: as §1

[4] = tested on: eastern black (E.B.) nightshade (Solanum ptycanthum); details: Preemergence
How it was run: as §1

[5] = tested on: goosegrass (Eleusine indica)
How it was run: as §1

[6] = tested on: green foxtail (Setaria viridis)
How it was run: as §1

kochia (Kochia scoparia) = tested on: kochia (Kochia scoparia)
How it was run: as §1

[7] = tested on: lambsquarters (Chenopodium album)
How it was run: as §1

[8] = tested on: large crabgrass (Digitaria sanguinalis)
How it was run: as §1

[9] = tested on: morningglory (Ipomoea coccinea)
How it was run: as §1

soybean (Glycine max) = tested on: soybean (Glycine max)
How it was run: as §1

[10] = tested on: surinam grass (Brachiaria decumbens)
How it was run: as §1

[11] = tested on: wheat (Triticum aestivum)
How it was run: as §1

wild oat (Avena fatua) = tested on: wild oat (Avena fatua)
How it was run: as §1

[12] = Postemergence, 31 g ai/ha, scale 0 to 100, 0 no effect, 100 complete control
[13] = Postemergence, 62 g ai/ha, scale 0 to 100
[14] = Postemergence, 125 g ai/ha, scale 0 to 100
[15] = Postemergence, 250 g ai/ha, scale 0 to 100
[16] = Preemergence, 31 g ai/ha, 0 to 100 scale, 0 no effect, 100 complete control
[17] = Preemergence, 62 g ai/ha, scale 0 to 100
[18] = Preemergence, 125 g ai/ha, scale 0 to 100
[19] = 31 g ai/ha, 0 to 100 scale, 0 no effect, 100 complete control
[20] = Preemergence, 250 g ai/ha, scale 0 to 100

5-[3-(4-chlorophenyl)-5-methyl-1H-pyrazol-1-yl]-1,6-dihydro-1-methyl-6-oxo-4-pyridazinyl-1-methylethyl carbonate [Compound 7]
Blackgrass plant response rating ([1]; 250 g ai/ha, preemergence, 0-100 scale): 100 | Plant response rating, Blackgrass [1, 12]: 85 | Plant response rating, Blackgrass [1, 13]: 90 | Plant response rating, Blackgrass [1, 14]: 100 | Plant response rating, Blackgrass [1, 15]: 100 | Plant response rating, Blackgrass [1, 16]: 70 | Plant response rating, Blackgrass [1, 17]: 85 | Plant response rating, Blackgrass [1, 18]: 100 | Plant response rating, Sunflower [2, 19]: 0 | Plant response rating, Sunflower ([2]; 62 g ai/ha, scale 0 to 100): 0 | Plant response rating, Sunflower ([2]; 125 g ai/ha, scale 0 to 100): 0 | Plant response rating, Sunflower ([2]; 250 g ai/ha, scale 0 to 100): 0 | Plant response rating, Ragweed [3, 12]: 0 | Plant response rating, Ragweed [3, 13]: 0 | Plant response rating, Ragweed [3, 14]: 0 | Plant response rating, Ragweed [3, 15]: 0 | Plant response rating, Ragweed [3, 16]: 0 | Plant response rating, Ragweed [3, 17]: 0 | Plant response rating, Ragweed [3, 18]: 0 | Plant response rating, Ragweed [3, 20]: 20 | Plant response rating, Nightshade, E. B. [4, 19]: 30 | Plant response rating, Nightshade, E. B. ([4]; 62 g ai/ha, scale 0 to 100): 30 | Plant response rating, Nightshade, E. B. ([4]; 125 g ai/ha, scale 0 to 100): 100 | Plant response rating, Nightshade, E. B. ([4]; 250 g ai/ha, scale 0 to 100): 100 | Plant response rating, Goosegrass [5, 12]: 95 | Plant response rating, Goosegrass [5, 13]: 100 | Plant response rating, Goosegrass [5, 14]: 100 | Plant response rating, Goosegrass [5, 15]: 100 | Plant response rating, Goosegrass [5, 16]: 85 | Plant response rating, Goosegrass [5, 17]: 90 | Plant response rating, Goosegrass [5, 18]: 100 | Plant response rating, Goosegrass [5, 20]: 100 | Plant response rating, Foxtail, Green [6, 12]: 75 | Plant response rating, Foxtail, Green [6, 13]: 100 | Plant response rating, Foxtail, Green [6, 14]: 100 | Plant response rating, Foxtail, Green [6, 15]: 100 | Plant response rating, Foxtail, Green [6, 16]: 100 | Plant response rating, Foxtail, Green [6, 17]: 100 | Plant response rating, Foxtail, Green [6, 18]: 100 | Plant response rating, Foxtail, Green [6, 20]: 100 | Plant response rating, Kochia (kochia (Kochia scoparia); [12]): 0 | Plant response rating, Kochia (kochia (Kochia scoparia); [13]): 0 | Plant response rating, Kochia (kochia (Kochia scoparia); [14]): 0 | Plant response rating, Kochia (kochia (Kochia scoparia); [15]): 10 | Plant response rating, Kochia (kochia (Kochia scoparia); [16]): 0 | Plant response rating, Kochia (kochia (Kochia scoparia); [17]): 0 | Plant response rating, Kochia (kochia (Kochia scoparia); [18]): 0 | Plant response rating, Kochia (kochia (Kochia scoparia); [20]): 0 | Plant response rating, Lambsquarters [7, 12]: 0 | Plant response rating, Lambsquarters [7, 13]: 0 | Plant response rating, Lambsquarters [7, 14]: 0 | Plant response rating, Lambsquarters [7, 15]: 10 | Plant response rating, Lambsquarters [7, 16]: 30 | Plant response rating, Lambsquarters [7, 17]: 30 | Plant response rating, Lambsquarters [7, 18]: 90 | Plant response rating, Lambsquarters [7, 20]: 100 | Plant response rating, Crabgrass, Large [8, 12]: 100 | Plant response rating, Crabgrass, Large [8, 13]: 100 | Plant response rating, Crabgrass, Large [8, 14]: 100 | Plant response rating, Crabgrass, Large [8, 15]: 100 | Plant response rating, Crabgrass, Large [8, 16]: 100 | Plant response rating, Crabgrass, Large [8, 17]: 100 | Plant response rating, Crabgrass, Large [8, 18]: 100 | Plant response rating, Crabgrass, Large [8, 20]: 100 | Plant response rating, Morningglory [9, 12]: 0 | Plant response rating, Morningglory [9, 13]: 0 | Plant response rating, Morningglory [9, 14]: 0 | Plant response rating, Morningglory [9, 15]: 0 | Plant response rating, Morningglory [9, 16]: 0 | Plant response rating, Morningglory [9, 17]: 0 | Plant response rating, Morningglory [9, 18]: 0 | Plant response rating, Morningglory [9, 20]: 0 | Plant response rating, Soybean (soybean (Glycine max); [12]): 0 | Plant response rating, Soybean (soybean (Glycine max); [13]): 0 | Plant response rating, Soybean (soybean (Glycine max); [18]): 0 | Plant response rating, Soybean (soybean (Glycine max); [20]): 0 | Plant response rating, Surinam Grass [10, 12]: 100 | Plant response rating, Surinam Grass [10, 13]: 100 | Plant response rating, Surinam Grass [10, 14]: 100 | Plant response rating, Surinam Grass [10, 15]: 100 | Plant response rating, Surinam Grass [10, 16]: 98 | Plant response rating, Surinam Grass [10, 17]: 100 | Plant response rating, Surinam Grass [10, 18]: 100 | Plant response rating, Surinam Grass [10, 20]: 100 | Plant response rating, Wheat [11, 12]: 60 | Plant response rating, Wheat [11, 13]: 80 | Plant response rating, Wheat [11, 14]: 95 | Plant response rating, Wheat [11, 16]: 0 | Plant response rating, Wheat [11, 17]: 65 | Plant response rating, Wheat [11, 18]: 80 | Plant response rating, Wheat [11, 20]: 95 | Plant response rating, Oat, Wild (wild oat (Avena fatua); [12]): 95 | Plant response rating, Oat, Wild (wild oat (Avena fatua); [13]): 95 | Plant response rating, Oat, Wild (wild oat (Avena fatua); [14]): 95 | Plant response rating, Oat, Wild (wild oat (Avena fatua); [15]): 95 | Plant response rating, Oat, Wild (wild oat (Avena fatua); [16]): 0 | Plant response rating, Oat, Wild (wild oat (Avena fatua); [17]): 70 | Plant response rating, Oat, Wild (wild oat (Avena fatua); [18]): 80 | Plant response rating, Oat, Wild (wild oat (Avena fatua); [20]): 85
